Assay results taken from US7312181B2, “Acylated thiosemicarbazides as herbicides” (Cropsolution, Inc., priority 2005, dated 2007).

Test system: Arabidopsis thaliana
Experiment: Plate-based in vivo herbicidal screen, Arabidopsis thaliana
Details: 192 h, seeds in 96-well plate, 27° C., 8 days, continuous fluorescent lighting, scored by visual inspection
Procedure: Plate-based in vivo screens were used to identify compounds with herbicidal activity. Three species of plants were used in screening: Arabidopsis thaliana, Agrostis sp. and Nicotinia tabacum (common tobacco). Test compounds in 1 μL of dimethylsulfoxide (DMSO) were delivered to individual wells of a 96-well microtiter plate. Growth media containing 10-15 seeds per 100 uL were then added. The growth media consisted of Murashige and Skoog Basal salt mixture, and 0.15% low melt agarose, all at a pH 6.2. The seeds remained neutrally buoyant and were easily pipettable at this concentration of low melt agarose. Each plate contained a column of untreated control wells in order to determine the false positive rate. The plates were covered and sealed and incubated at 27° C. for 8 days under continuous fluorescent lighting (155 umol/m^2/s). The plates were scored for herbicidal activity by visual inspection. Observed symptomology included growth inhibition, bleaching, leaf curling, and root growth inhibition. Six commercial herbicide standards were run concurrently with the experimental compounds as internal controls for assay sensitivity and plant response. The standards are described in Table 1 with their biochemical mode of action. The herbicidal activity of compositions in the present invention, presented as EC90 concentrations in the Arabidopsis thaliana screen, is tabulated in Table 2.

Row | SMILES | EC90
1 | O=C(NNC(=S)Nc1ccccc1Cl)c1cccc(NC(=O)c2cccc(Cl)c2)c1 [Compound 2, 1-[3-(3-Chlorobenzamido)-benzoyl]-4-(2-chlorophenyl)-thiosemicarbazide] | 100 nM
2 | O=C(Nc1cccc(C(=O)NNC(=S)Nc2ccccc2Cl)c1Cl)c1cccc(Cl)c1 [Compound 3, 1-[2-Chloro-3-(3-chloro-benzamido)-benzoyl]-4-(2-chlorophenyl)-thiosemicarbazide] | 3300 nM
3 | Cc1c(NC(=O)c2cccc(Cl)c2)cccc1C(=O)NNC(=S)Nc1ccccc1Cl [Compound 4, 1-[3-(3-Chlorobenzamido)-2-methylbenzoyl]-4-(2-chloro-phenyl)-thiosemicarbazide] | 300 nM
4 | O=C(NNC(=S)Nc1ccccc1)c1cccc(NC(=O)c2cccc(Cl)c2)c1 [Compound 6, 1-[3-(3-Chlorobenzamido)-benzoyl]-4-phenyl-thiosemicarbazide] | 150 nM
5 | O=C(NNC(=S)Nc1ccccc1C(F)(F)F)c1cccc(NC(=O)c2cccc(Cl)c2)c1 [Compound 7, 1-[3-(3-Chlorobenzamido)-benzoyl]-4-(2-trifluoromethylphenyl)-thiosemicarbazide] | 1200 nM
6 | O=C(NNC(=S)Nc1ccccc1F)c1cccc(NC(=O)c2cccc(Cl)c2)c1 [Compound 9, 1-[3-(3-Chlorobenzamido)-benzoyl]-4-(2-fluorophenyl)-thiosemicarbazide] | 50 nM
7 | O=C(NNC(=S)Nc1ccccc1Cl)c1ccc(Cl)c(NC(=O)c2cccc(C(F)(F)F)c2)c1 [Compound 11, 4-(2-Chlorophenyl)-1-[4-chloro-3-(3-trifluoromethylbenzamido)-benzoyl]-thiosemicarbazide] | 3300 nM
8 | O=C(NNC(=S)Nc1ccccc1Cl)c1cccc(NC(=O)c2cccc(C(F)(F)F)c2)c1 [Compound 12, 4-(2-Chlorophenyl)-1[3-(3-trifluoromethylbenzamido)-benzoyl]-thiosemicarbazide] | 300 nM
9 | O=C(Nc1cccc(C(=O)NNC(=S)Nc2ccccc2Cl)c1Cl)c1cccc(C(F)(F)F)c1 [Compound 14, 4-(2-Chlorophenyl)-1-[2-chloro-3-(3-trifluoromethylbenzamido)-benzoyl]-thiosemicarbazide] | 300 nM
10 | O=C(NNC(=S)Nc1ccccc1Cl)c1cccc(NC(=O)c2cc(F)ccc2F)c1 [Compound 22, 4-(2-Chlorophenyl)-1-[3-(2,5-difluorobenzamido)-benzoyl]-thiosemicarbazide] | 50 nM
11 | O=C(NNC(=S)Nc1ccccc1Cl)c1cccc(NC(=O)c2cccc(F)c2)c1 [Compound 23, 4-(2-Chlorophenyl)-1-[3-(3-fluorobenzamido)-benzoyl]-thiosemicarbazide] | 50 nM
